Assay results published in ChEMBL document CHEMBL1201862, “PubChem BioAssay data set” (2004).
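Cultured in 96-well plates, cells were exposed to test compound for 48 hours across five concentrations. Abbreviation: GI50, concentration required for 50% inhibition of growth.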 Calls of active or inactive are those of the source. Cut-off read from the data, not from the text of the source: active = GI50 up to about 1.1 µM and inactive = higher.

How the values were obtained:
Test in all cases: growth of human tumour cells (NCI), 48 h
SK-MEL-5 = test system: SK-MEL-5
CCRF-CEM = test system: CCRF-CEM
NCI-H522 = test system: NCI-H522
SN12C = test system: SN12C
SW-620 = test system: SW-620
UACC-257 = test system: UACC-257
U-251 = test system: U-251
A498 = test system: A498
HCC 2998 = test system: HCC 2998
OVCAR-8 = test system: OVCAR-8
SF-268 = test system: SF-268
HT-29 = test system: HT-29
OVCAR-4 = test system: OVCAR-4
NCI-H23 = test system: NCI-H23
KM12 = test system: KM12
SNB-19 = test system: SNB-19
786-0 = test system: 786-0
SF-539 = test system: SF-539
DMS-273 = test system: DMS-273
CAKI-1 = test system: CAKI-1
MOLT-4 = test system: MOLT-4
COLO 205 = test system: COLO 205
OVCAR-3 = test system: OVCAR-3
A549 = test system: A549
SNB-78 = test system: SNB-78
M14 = test system: M14
UO-31 = test system: UO-31
UACC-62 = test system: UACC-62
OVCAR-5 = test system: OVCAR-5
NCI-H460 = test system: NCI-H460
HOP-62 = test system: HOP-62
HL-60 = test system: HL-60
DMS-114 = test system: DMS-114
DLD-1 = test system: DLD-1
NCI-H226 = test system: NCI-H226
SF-295 = test system: SF-295
HOP-18 = test system: HOP-18
ACHN = test system: ACHN
RPMI-8226 = test system: RPMI-8226
EKVX = test system: EKVX
SK-MEL-2 = test system: SK-MEL-2
KM-20L2 = test system: KM-20L2
SK-OV-3 = test system: SK-OV-3
M19-MEL = test system: M19-MEL
TK-10 = test system: TK-10
IGROV-1 = test system: IGROV-1
Malme-3M = test system: Malme-3M
K562 = test system: K562
HCT-116 = test system: HCT-116
LXFL 529 = test system: LXFL 529
XF498 = test system: XF498
HCT-15 = test system: HCT-15
HOP-92 = test system: HOP-92

For `C=C1CCC23CC(CC[C@@H]2[C@@]12C[C@@H](c1ccoc1)OC2=O)OC3=O` (stereo partly drawn), the GI50 (SK-MEL-5) was > 100 µM (inactive), the GI50 (CCRF-CEM) was 63 µM (inactive) and the GI50 (NCI-H522) was > 100 µM (inactive). For the same compound, the GI50 (SN12C) was > 100 µM (inactive), the GI50 (SW-620) was > 100 µM (inactive) and the GI50 (UACC-257) was > 100 µM (inactive). The GI50 (U-251) was > 100 µM (inactive), the GI50 (A498) was > 100 µM (inactive) and the GI50 (HCC 2998) was > 100 µM (inactive). For the same compound, the GI50 (OVCAR-8) was > 100 µM (inactive), the GI50 (SF-268) was > 100 µM (inactive) and the GI50 (HT-29) was > 100 µM (inactive). The GI50 (OVCAR-4) was > 100 µM (inactive), the GI50 (NCI-H23) was > 100 µM (inactive) and the GI50 (KM12) was > 100 µM (inactive). For the same compound, the GI50 (SNB-19) was > 100 µM (inactive), the GI50 (786-0) was > 100 µM (inactive) and the GI50 (SF-539) was > 100 µM (inactive). For the same compound, the GI50 (DMS-273) was > 100 µM (inactive), the GI50 (CAKI-1) was > 100 µM (inactive) and the GI50 (MOLT-4) was > 100 µM (inactive). The GI50 (COLO 205) was > 100 µM (inactive), the GI50 (OVCAR-3) was > 100 µM (inactive) and the GI50 (A549) was > 100 µM (inactive). The GI50 (SNB-78) was > 100 µM (inactive), the GI50 (M14) was > 100 µM (inactive) and the GI50 (UO-31) was > 100 µM (inactive). The GI50 (UACC-62) was > 100 µM (inactive), the GI50 (OVCAR-5) was > 100 µM (inactive) and the GI50 (NCI-H460) was > 100 µM (inactive). The GI50 (HOP-62) was > 100 µM (inactive), the GI50 (HL-60) was > 100 µM (inactive) and the GI50 (DMS-114) was > 100 µM (inactive). The GI50 (DLD-1) was > 100 µM (inactive), the GI50 (NCI-H226) was > 100 µM (inactive) and the GI50 (SF-295) was > 100 µM (inactive). For the same compound, the GI50 (HOP-18) was > 100 µM (inactive), the GI50 (ACHN) was > 100 µM (inactive) and the GI50 (RPMI-8226) was > 100 µM (inactive). For the same compound, the GI50 (EKVX) was > 100 µM (inactive), the GI50 (SK-MEL-2) was > 100 µM (inactive) and the GI50 (KM-20L2) was > 100 µM (inactive). For the same compound, the GI50 (SK-OV-3) was > 100 µM (inactive), the GI50 (M19-MEL) was > 100 µM (inactive) and the GI50 (TK-10) was > 100 µM (inactive). For the same compound, the GI50 (IGROV-1) was > 100 µM (inactive), the GI50 (Malme-3M) was > 100 µM (inactive) and the GI50 (K562) was > 100 µM (inactive). The GI50 (HCT-116) was > 100 µM (inactive), the GI50 (LXFL 529) was > 100 µM (inactive) and the GI50 (XF498) was > 100 µM (inactive). The GI50 (HCT-15) was > 100 µM and the GI50 (HOP-92) was > 100 µM (inactive).
